Assay results: ChEMBL document CHEMBL5131375, “Recent Developments in the Use of Kinase Inhibitors for Management of Viral Infections” (J Med Chem, 2022)

Experiments:
Human betaherpesvirus 5 [1] = assay: Antiviral activity against HCMV AD169 infected in HFF cells incubated for 96 hrs; format: functional, organism-based; conditions: Human betaherpesvirus 5, AD169, HFF
Human betaherpesvirus 5 [2] = assay: Antiviral activity against HCMV Merlin (RCMV 1111) infected in HFF cells incubated for 96 hrs; format: functional, organism-based; conditions: Human betaherpesvirus 5, Merlin (RCMV 1111)
Human betaherpesvirus 5 [3] = assay: microbe, parasite or virus in culture; format: functional, organism-based
dengue virus type 1 = assay: microbe, parasite or virus in culture; format: functional, organism-based
dengue virus type 2 = assay: microbe, parasite or virus in culture; format: functional, organism-based
dengue virus type 3 = assay: microbe, parasite or virus in culture; format: functional, organism-based
dengue virus type 4 = assay: microbe, parasite or virus in culture; format: functional, organism-based
in vitro [4] = conditions: human
in vitro [5] = conditions: human; remark: listed apart in the source
Hepatitis C virus [6] = assay: microbe, parasite or virus in culture
Hepatitis C virus [7] = assay: microbe, parasite or virus in culture; remark: listed apart in the source
in vitro [8] = conditions: human, hela
Coxsackievirus B3 = assay: microbe, parasite or virus in culture; conditions: Enterovirus B
Human rhinovirus sp. = assay: microbe, parasite or virus in culture
Hepatitis C virus [9] = assay: microbe, parasite or virus in culture; conditions: subtype 1b
Influenza A virus [10] = assay: Antiviral activity against influenza A virus HN79; format: functional, organism-based
Influenza A virus [11] = assay: microbe, parasite or virus in culture; format: functional, organism-based; conditions: pdmH1N1
Influenza A virus [12] = assay: microbe, parasite or virus in culture; format: functional, organism-based; conditions: H3N2
Influenza A virus [13] = assay: microbe, parasite or virus in culture; format: functional, organism-based
[14] = Cytotoxicity against human A549 cells; format: toxicity, cell-based
Dengue virus = assay: microbe, parasite or virus in culture
Human alphaherpesvirus 1 [15] = assay: microbe, parasite or virus in culture; format: functional, organism-based
Human alphaherpesvirus 1 [16] = assay: Antiviral activity against HSV-1 in HFL1 cells incubated for 24 hrs; format: functional, organism-based; conditions: Human alphaherpesvirus 1, HFL1, 24 h
[17] = Cytotoxicity against HFL1 cells; format: toxicity, cell-based; conditions: human
Chikungunya virus = assay: microbe, parasite or virus in culture; format: functional, organism-based
Junin virus = assay: microbe, parasite or virus in culture; format: functional, organism-based; conditions: Mammarenavirus juninense
in vitro [18] = conditions: chlorocebus sabaeus, Vero cells
Human alphaherpesvirus 1 [19] = assay: Antiviral activity against HSV-1 at 10 uM relative to control; format: functional
Influenza A virus [20] = assay: microbe, parasite or virus in culture; format: functional, organism-based; conditions: H1N1pdm09
[21] = target: AP2-associated protein kinase 1 (Homo sapiens, UniProt Q2M2I8)
SARS-CoV-2 [22] = assay: Antiviral activity against SARS-CoV-2 assessed as reduction of viral load at 400 to 800 nM; format: functional, Severe acute respiratory syndrome coronavirus 2; design: scale not given: the % may be the effect or the level left; conditions: dose 400-800 nM
SARS-CoV-2 [23] = assay: Antiviral activity against SARS-CoV-2 assessed as reduction of viral load at 400 nM relative to control; format: functional, Severe acute respiratory syndrome coronavirus 2; design: scale not given: the % may be the effect or the level left
[24] = Cytotoxicity against osteoblast cells (unknown origin); format: toxicity, cell-based, Calvarial osteoblast
[25] = Cytotoxicity against liver spheroids (unknown origin); format: toxicity, tissue-based
SARS-CoV-2 [26] = assay: microbe, parasite or virus in culture; format: functional, organism-based; conditions: Severe acute respiratory syndrome coronavirus 2
SARS-CoV-2 [27] = assay: microbe, parasite or virus in culture; format: functional, organism-based; conditions: Severe acute respiratory syndrome coronavirus 2; remark: listed apart in the source
Vero C1008 = assay: Cytotoxicity against African green monkey Vero E6 cells at 250 nM; format: toxicity, cell-based; conditions: chlorocebus sabaeus, vero c1008, 0.25 µM

Chain of AP2-associated protein kinase 1 (Q2M2I8 whole entry): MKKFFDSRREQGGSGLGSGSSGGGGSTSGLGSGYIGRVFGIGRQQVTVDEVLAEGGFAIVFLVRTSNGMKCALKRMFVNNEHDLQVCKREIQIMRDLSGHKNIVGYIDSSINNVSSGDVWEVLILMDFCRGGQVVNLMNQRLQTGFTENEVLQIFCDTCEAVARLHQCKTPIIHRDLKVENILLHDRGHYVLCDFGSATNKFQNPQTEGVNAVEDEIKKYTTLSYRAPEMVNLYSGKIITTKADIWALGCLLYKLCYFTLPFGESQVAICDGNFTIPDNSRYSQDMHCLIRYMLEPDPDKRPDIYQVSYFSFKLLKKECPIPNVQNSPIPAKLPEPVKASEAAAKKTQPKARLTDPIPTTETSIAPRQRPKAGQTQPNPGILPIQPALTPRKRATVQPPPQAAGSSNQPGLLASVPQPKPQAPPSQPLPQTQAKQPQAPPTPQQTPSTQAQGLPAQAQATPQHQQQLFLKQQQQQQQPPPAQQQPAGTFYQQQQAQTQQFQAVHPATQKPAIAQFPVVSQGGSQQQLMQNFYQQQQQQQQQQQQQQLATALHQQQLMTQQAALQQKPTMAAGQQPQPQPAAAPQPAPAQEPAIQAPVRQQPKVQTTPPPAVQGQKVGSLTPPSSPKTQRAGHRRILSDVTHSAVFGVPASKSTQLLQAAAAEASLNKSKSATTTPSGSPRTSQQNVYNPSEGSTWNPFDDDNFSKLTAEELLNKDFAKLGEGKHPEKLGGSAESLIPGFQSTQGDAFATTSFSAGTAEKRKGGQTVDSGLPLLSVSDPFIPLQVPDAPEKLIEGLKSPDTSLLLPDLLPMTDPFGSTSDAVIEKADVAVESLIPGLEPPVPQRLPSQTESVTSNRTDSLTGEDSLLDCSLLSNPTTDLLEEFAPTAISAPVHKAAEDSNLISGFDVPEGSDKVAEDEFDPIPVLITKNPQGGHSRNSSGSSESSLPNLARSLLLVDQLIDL

COc1cc[nH]c1/C=C1\C(=O)Nc2ccc([N+](=O)[O-])c(N3CC[C@@H](O)C3)c21
EC50 (Human betaherpesvirus 5 [1]): 0.01 µM
EC50 (Human betaherpesvirus 5 [2]): 1.3 µM
EC50 (Human betaherpesvirus 5 [3]): 0.01 µM

COc1ccc(CC(N)c2csc(Nc3ncccn3)n2)cc1 (stereo unspecified)
EC50 (dengue virus type 1): 0.9 µM
EC50 (dengue virus type 2): 7.6 µM
EC50 (dengue virus type 3): 2.6 µM
EC50 (dengue virus type 4): 5 µM
CC50 (in vitro [4]; Huh-7.5.1 cells): > 100 µM

Cc1nc2c(NCc3cccc(S(C)(=O)=O)c3)nccn2c1-c1ccc(O)c(F)c1
CC50 (in vitro [5]; huh-7): > 30 µM
EC50 (Hepatitis C virus [6]): 0.1 µM
EC50 (Hepatitis C virus [7]): 0.1 µM

COc1cc(-c2cnc3c(N4CCOCC4)snc3c2)cc(OC)c1OC
CC50 (in vitro [4]; Huh-7.5.1 cells): 23.2 µM
EC50 (Hepatitis C virus [7]): 2.5 µM

COc1ccc(-c2cnc3c(OC(C)C)snc3c2)cc1OC
CC50 (in vitro [4]; huh7.5.1): > 10 µM

CC(=O)NCCNc1cc(Cl)nn2c(-c3cccc(S(=O)(=O)N(C)C)c3)c(C)nc12
CC50 (in vitro [8]): > 50 µM
EC50 (Coxsackievirus B3): 0.14 µM
EC50 (Human rhinovirus sp.): 1.03 µM
EC50 (Hepatitis C virus [9]): 0.08 µM

Cc1ccc([N+](=O)[O-])cc1S(=O)(=O)N(C)/N=C/c1cnc2ccc(Br)cn12
IC50 (Influenza A virus [10]): 0.04 µM
IC50 (Influenza A virus [11]): 0.04 µM
IC50 (Influenza A virus [12]): 0.04 µM
IC50 (Influenza A virus [13]): 0.04 µM
CC50 [14]: > 100 µM

COc1ccc(-c2cnc3[nH]cc(C#Cc4cccnc4)c3c2)cc1OC
CC50 (in vitro [4]; Huh-7.5.1 cells): 17 µM
EC50 (Dengue virus): 0.043 µM

COc1ccc(-c2ccc3nsc(N4C[C@@H](C)O[C@@H](C)C4)c3n2)cc1OC
CC50 (in vitro [4]; huh7.5.1): > 10 µM
EC50 (Dengue virus): 1 µM

Cc1c(NC(=O)c2cccc(NC(=O)C(C)NC(=O)c3ccco3)c2)c(=O)n(-c2ccccc2)n1C (stereo unspecified)
EC50 (Human alphaherpesvirus 1 [15]): 64 µM
IC50 (Human alphaherpesvirus 1 [16]): 29 µM
CC50 [17]: 2040 µM

CC1Oc2ccc(NC(=O)[C@@H](Cc3c[nH]c4ccccc34)NC(=O)c3ccc(F)cc3)cc2NC1=O (stereo partly specified)
EC50 (Human alphaherpesvirus 1 [15]): 29 µM
IC50 (Human alphaherpesvirus 1 [16]): 29 µM
CC50 [17]: 1410 µM

CCNS(=O)(=O)c1cc(-c2c(C)nc3c(NCc4ccnc(CC)c4)cc(Cl)nn23)ccc1OO
CC50 (in vitro [8]): 18.3 µM
EC50 (Coxsackievirus B3): 0.058 µM
EC50 (Human rhinovirus sp.): 0.075 µM
EC50 (Hepatitis C virus [9]): 0.029 µM

CC(C)c1ccc(NC(=O)c2csc(C(O)C(C)C)n2)cc1 (stereo unspecified)
EC50 (Chikungunya virus): 2.2 µM
CC50 (in vitro [5]; Huh-7 cells): > 50 µM

Cc1cc(-c2cc(C(=O)Nc3nc(CN4CCCC(C)C4)cs3)c3c(C)noc3n2)c(C)o1 (stereo unspecified)
EC50 (Human alphaherpesvirus 1 [15]): 32 µM
IC50 (Human alphaherpesvirus 1 [16]): 29 µM
CC50 [17]: 159 µM

C/C(O)=C(/C#N)C(=O)Nc1ccc(C(F)(F)F)cc1
EC50 (Junin virus): 16 µM
CC50 [14]: > 100 µM
CC50 (in vitro [18]): 223 µM

O=C(Nc1c[nH]nc1-c1nc2ccc(CN3CCOCC3)cc2[nH]1)NC1CC1 [AT-9283]
Activity (Human alphaherpesvirus 1 [19]): 70%

Cc1cc(C(=O)NOCCO)c(Nc2ccc(I)cc2F)n(C)c1=O [AZD-8330]
CC50 [14]: > 100 µM
IC50 (Influenza A virus [20]): 0.04 µM

CCS(=O)(=O)N1CC(CC#N)(n2cc(-c3ncnc4[nH]ccc34)cn2)C1 [BARICITINIB]
IC50 [21]: 0.017 µM
Activity (SARS-CoV-2 [22]): 30%
Activity (SARS-CoV-2 [23]): 30%
CC50 [24]: > 50 µM
CC50 [25]: > 5 µM

CNCc1ccc(-c2cc(-c3nc(-c4ccc(S(=O)(=O)C(C)C)cc4)cnc3N)on2)cc1 [BERZOSERTIB]
IC50 (SARS-CoV-2 [26]): 0.00428 µM
IC50 (SARS-CoV-2 [27]): 0.00428 µM
Activity (Vero C1008): Non-Toxic
